Values of other authors, collected in patent US6586005B1, “Extended release formulation of etodolac” (Ranbaxy Laboratories Limited, priority 1999, dated 2003).

Difference between solubility at pH 5 to pH 7 (pH 5 versus pH 7): thirty | Aqueous solubility (pH independent below pH 3): very low aqueous solubility
Compound: CCc1cccc2c3c([nH]c12)C(CC)(CC(=O)O)OCC3 (centres unmarked) [Etodolac, 1,8-diethyl-1,3,4,9-tetrahydropyrano [3,4-b] indole-1-acetic acid]
